Results published in paper PMC6160999, “Pharmacokinetics, Tissue Distribution and Excretion of a Novel Diuretic (PU-48) in Rats” (Pharmaceutics, 2018).

Test: Stability of PU-48 in rat plasma QC samples (HPLC)
Type: in vitro ADME
Details: for Stability: Measured Concentration: n=3
Method: HPLC Analysis and Method Validation
The concentration of PU -48 prototype in biological sample (feces and plasma protein binding analysis) was determined using a validated high -performance liquid chromatographic (HPLC) method in our preliminary experiment. Briefly, the analysis was performed using a HPLC consistent of model 510 pump with a model 2487 ultraviolet detector, a model Rheodyne 7725 injector, and a column oven. The analytical conditions were as follows: the detection wavelength: 293 nm; analytical column: a reversed-phase Acclaim C18 (4.6 mm × 250 mm, 5.0 µm, Dionex); column temperature: 25 C; mobile phase: acetonitrile: distilled water at a ratio of 60: 40 ( v/v); flow rate: 1 mL/min. In this study, the methods for the feces samples, were evaluated for specificity, linearity, precision, accuracy and […]
The intra- and inter-day precision and accuracy were determined by analyzing five replicates of QC samples (low, medium and high concentrations of 0.005, 0.08 and 1.6 µg/mL) at each QC level on the same day and on five consecutive days. The precision was expressed as the relative standard deviation (RSD) between the measured values and the targeted values. The pass c riterion was set at <15%. The accuracy was expressed as relative error (RE) between the measured values and the targeted values, which was set at < ± 15% (for the low concentration, the acceptance criterion was <20%). The stability of PU -48 in rat plasma w as determined by analyzing QC samples stored in different conditions, including room temperature and light irradiation for 24 h, post -preparation (the extracted samples were stored at 4°C for 96 h), three cycles of freeze and thaw (freezing at -20°C for 24 h and thawing at room temperature) and long-term stored at −20°C for 3 months. All of the QC samples for stability assessment were analyzed in triplicate.

[1] = extracted rat plasma samples, post−preparative (at 4 °C for 96 h), actual 0.005 µg/mL
[2] = extracted rat plasma samples, post−preparative (at 4 °C for 96 h), actual 0.08 µg/mL
[3] = extracted rat plasma samples, post−preparative (at 4 °C for 96 h), actual 1.6 µg/mL
[4] = rat plasma, freeze−thawing three cycles (at −20 °C), actual 0.005 µg/mL
[5] = rat plasma, freeze−thawing three cycles (at −20 °C), actual 0.08 µg/mL
[6] = rat plasma, freeze−thawing three cycles (at −20 °C), actual 1.6 µg/mL
[7] = rat plasma, freezing storage (at −20 °C for 3 months), actual 0.005 µg/mL
[8] = rat plasma, freezing storage (at −20 °C for 3 months), actual 0.08 µg/mL
[9] = rat plasma, light and room temperature for 24 h, actual 0.005 µg/mL
[10] = rat plasma, light and room temperature for 24 h, actual 0.08 µg/mL
[11] = rat plasma, light and room temperature for 24 h, actual 1.6 µg/mL

Stability: Accuracy (RE) [1]: −8.43%
Stability: Measured Concentration [1]: 0.0046 ± 0.0006 µg/mL
Stability: Accuracy (RE) [2]: −10.23%
Stability: Measured Concentration [2]: 0.0718 ± 0.0019 µg/mL
Stability: Accuracy (RE) [3]: −3.08%
Stability: Measured Concentration [3]: 1.5507 ± 0.0904 µg/mL
Stability: Accuracy (RE) [4]: −7.33%
Stability: Measured Concentration [4]: 0.0046 ± 0.0004 µg/mL
Stability: Accuracy (RE) [5]: −3.43%
Stability: Measured Concentration [5]: 0.0773 ± 0.0055 µg/mL
Stability: Accuracy (RE) [6]: −8.49%
Stability: Measured Concentration [6]: 1.4641 ± 0.0840 µg/mL
Stability: Accuracy (RE) [7]: −9.37%
Stability: Measured Concentration [7]: 0.0045 ± 0.0002 µg/mL
Stability: Accuracy (RE) [8]: −6.48%
Stability: Measured Concentration [8]: 0.0748 ± 0.0058 µg/mL
Stability: Accuracy (RE) (rat plasma, freezing storage (at −20 °C for 3 months), actual 1.6 µg/mL): −10.15%
Stability: Accuracy (RE) [9]: −9.278%
Stability: Measured Concentration [9]: 0.0045 ± 0.0003 µg/mL
Stability: Accuracy (RE) [10]: 9.07%
Stability: Measured Concentration [10]: 0.0873 ± 0.0011 µg/mL
Stability: Accuracy (RE) [11]: −10.63%
Stability: Measured Concentration [11]: 1.4299 ± 0.0296 µg/mL
Structure (SMILES): COC(=O)c1sc2nc3ccc(OC)cc3cc2c1N [PU-48, Methyl 3-amino-6-methoxythieno [2,3-b] quinoline-2-carboxylate]
